Laboratory results as given in patent US5989846A, “Assays to identify inducers of plant defense resistance” (Rutgers, The State University of New Jersey, priority 1995, dated 1999).

Assays:
plant processes = system: plant processes; design: key: +: induces or enhances; -: reduces or inhibits; settings: addition of salicylic acid to plants; cited from earlier work
horseradish peroxidase = molecular target: T1, horseradish peroxidase (Armoracia rusticana, UniProt P00433); assay: Horseradish peroxidase activity; format: biochemical
T1 construct: purchased Sigma
T1 sequence (P00433 31-353): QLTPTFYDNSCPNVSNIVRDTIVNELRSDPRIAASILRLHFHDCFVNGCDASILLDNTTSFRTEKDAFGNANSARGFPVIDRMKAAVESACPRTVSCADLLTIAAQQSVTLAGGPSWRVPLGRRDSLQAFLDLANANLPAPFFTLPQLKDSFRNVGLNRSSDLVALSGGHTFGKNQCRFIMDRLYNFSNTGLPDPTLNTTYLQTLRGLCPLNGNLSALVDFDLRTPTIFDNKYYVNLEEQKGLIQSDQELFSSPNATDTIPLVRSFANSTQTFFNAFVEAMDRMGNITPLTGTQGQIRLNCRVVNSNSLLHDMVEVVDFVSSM
Method: Horseradish peroxidase (1 mg; obtained from Sigma) was dissolved in 1.5 ml 200 mM potassium phosphate, pH 6.2, containing 150 mM NaCl. Following a 15 minute incubation at room temperature, the enzyme solution was centrifuged (10,000 g, 10 minutes). After buffer exchange (PD-10, equilibrated with 25 mM potassium phosphate, pH 6.2), the protein concentration was adjusted to 0.5 mg/ml.
Guaiacol peroxidase activity was determined by the method of Chance and Maehly (Methods Enzymol. 2: 764 (1955)) using guaiacol as the substrate.
The formation of tetraguaiacol was monitored at 470 nm. The reaction mixture contained 0.25% guaiacol and 100 mM hydrogen peroxide in 20 mM potassium phosphate, pH 6.2. The amount of protein per 1 ml assay was […]. The reaction was measured for five minutes. The assay for horseradish peroxidase was identical, except that only 0.2-0.5 μg protein was used.

[1] = system: salicylic acid binding protein; assay: Competitive [14C] salicylic acid binding assay (spin-column); design: species or system tobacco; settings: [14C] salicylic acid 20 μM
How it was run: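 Plant-fractionated binding protein incubated 2 hr at 4 °C with 5 μM-20 μM [14C]salicylic acid, with analogues added to the mixture as competitors. Bound ligand separated from free by spin-column gel exclusion (6 kDa limit) and counted; binding activity compared with analogue-free controls.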

ascorbate peroxidase = assay: Ascorbate peroxidase activity in tobacco leaf extracts; format: biochemical, Nicotiana tabacum cv. Xanthi nc
How it was run: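 Soluble extracts from leaves of 6–8-week Nicotiana tabacum cv. Xanthi nc, desalted into 50 mM potassium phosphate pH 7 with 100 μM ascorbate, were assayed (30–50 μg protein) with or without 100 or 1000 μM SA or INA. Ascorbate oxidation followed as A290 decrease; means of three replicates.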

In the case of `O=C(O)c1ccccc1O` [salicylic acid, 2-hydroxybenzoic acid], the “Effect on Adventitious root initiation” value (plant processes) is given as “+”, the “Effect on Alternative pathway” value (plant processes) is given as “+” and the “Effect on Disease resistance” value (plant processes) is given as “+”. For the same compound, the “Effect on Ethylene biosynthesis” value (plant processes) was “-”, the “Effect on Flowering” value (plant processes) was “+” and the “Effect on Fruit yield” value (plant processes) was “+”. The “Effect on Gene regulation” value (plant processes) was “+”, the “Effect on Glycolysis” value (plant processes) was “+” and the “Effect on Growth inhibition” value (plant processes) was “+”. For the same compound, the “Effect on Krebs cycle” value (plant processes) was “+”, the “Effect on Leaf abscission” value (plant processes) was “-” and the “Effect on Photonastic leaflet movement” value (plant processes) was “+”. The “Effect on Potassium ion absorption” value (plant processes) was “-”, the “Effect on Scotonastic leaflet movement” value (plant processes) was “-” and the “Effect on Seed germination” value (plant processes) was “- and +”. For the same compound, the “Effect on Somatic embryogenesis” value (plant processes) was “-”, the “Effect on Stomatal closure” value (plant processes) was “-” and the “Effect on Thermogenesis” value (plant processes) was “+”. For the same compound, the “Effect on Transpiration” value (plant processes) was “-”, the “Effect on Wound response” value (plant processes) was “-” and the Activity (horseradish peroxidase; HRP, 100 μM compound) was 251 ± 11 μmols of oxidized substrate mi. For the same compound, the inhibition at 100 µM (horseradish peroxidase; HRP, 100 μM compound) was -4%, the Activity (horseradish peroxidase; HRP, 1,000 μM compound) was 237 ± 21 μmols of oxidized substrate mi and the inhibition at 1000 µM (horseradish peroxidase; HRP, 1,000 μM compound) was 1%. For the same compound, the “Inhibition (%) 2×” value ([1]; 40 μM (2×) unlabeled competitor) was 50%, the “Inhibition (%) 10×” value ([1]; 200 μM (10×) unlabeled competitor) was 91% and the “% Inhibition of ascorbate peroxidase” value (ascorbate peroxidase; 200 μM compound, corrected for quenching of auto oxidation) was 83 ± 9%. The IC50 (ascorbate peroxidase; 750 μM ascorbate, 25 to 500 μM compound, FIG. 17, read-out: Concentration necessary for 50% inhibition (I50) of ascorbate peroxidase) was roughly 80 µM, the Activity (ascorbate peroxidase; APX, 100 μM compound) was 2.0 ± 0.2 μmols of oxidized substrate mi and the Inhibition (ascorbate peroxidase; APX, 100 μM compound) was 59%. For the same compound, the Activity (ascorbate peroxidase; APX, 1,000 μM compound) was 0.24 ± 0.1 μmols of oxidized substrate mi and the Inhibition (ascorbate peroxidase; APX, 1,000 μM compound) was 95%.
